According to ChEMBL document CHEMBL3632507, “Discovery of novel VEGFR-2 inhibitors. Part 5: Exploration of diverse hinge-binding fragments via core-refining approach” (Eur J Med Chem, 2015):

Columns and labels:
A549 = test: Antiproliferative activity against human A549 cells assessed as cell growth inhibition after 48 hrs by MTT assay; details: A549, 48 h
[1] = Antiproliferative activity against human SMMC7721 cells assessed as cell growth inhibition after 48 hrs by MTT assay; details: SMMC-7721, 48 h
[2] = target: Vascular endothelial growth factor receptor 2 (Homo sapiens, UniProt P35968); test: Inhibition of VEGFR-2 (unknown origin) after 1 hr by ADP-Glo assay
Vascular endothelial growth factor receptor 2, sequence (P35968 whole entry): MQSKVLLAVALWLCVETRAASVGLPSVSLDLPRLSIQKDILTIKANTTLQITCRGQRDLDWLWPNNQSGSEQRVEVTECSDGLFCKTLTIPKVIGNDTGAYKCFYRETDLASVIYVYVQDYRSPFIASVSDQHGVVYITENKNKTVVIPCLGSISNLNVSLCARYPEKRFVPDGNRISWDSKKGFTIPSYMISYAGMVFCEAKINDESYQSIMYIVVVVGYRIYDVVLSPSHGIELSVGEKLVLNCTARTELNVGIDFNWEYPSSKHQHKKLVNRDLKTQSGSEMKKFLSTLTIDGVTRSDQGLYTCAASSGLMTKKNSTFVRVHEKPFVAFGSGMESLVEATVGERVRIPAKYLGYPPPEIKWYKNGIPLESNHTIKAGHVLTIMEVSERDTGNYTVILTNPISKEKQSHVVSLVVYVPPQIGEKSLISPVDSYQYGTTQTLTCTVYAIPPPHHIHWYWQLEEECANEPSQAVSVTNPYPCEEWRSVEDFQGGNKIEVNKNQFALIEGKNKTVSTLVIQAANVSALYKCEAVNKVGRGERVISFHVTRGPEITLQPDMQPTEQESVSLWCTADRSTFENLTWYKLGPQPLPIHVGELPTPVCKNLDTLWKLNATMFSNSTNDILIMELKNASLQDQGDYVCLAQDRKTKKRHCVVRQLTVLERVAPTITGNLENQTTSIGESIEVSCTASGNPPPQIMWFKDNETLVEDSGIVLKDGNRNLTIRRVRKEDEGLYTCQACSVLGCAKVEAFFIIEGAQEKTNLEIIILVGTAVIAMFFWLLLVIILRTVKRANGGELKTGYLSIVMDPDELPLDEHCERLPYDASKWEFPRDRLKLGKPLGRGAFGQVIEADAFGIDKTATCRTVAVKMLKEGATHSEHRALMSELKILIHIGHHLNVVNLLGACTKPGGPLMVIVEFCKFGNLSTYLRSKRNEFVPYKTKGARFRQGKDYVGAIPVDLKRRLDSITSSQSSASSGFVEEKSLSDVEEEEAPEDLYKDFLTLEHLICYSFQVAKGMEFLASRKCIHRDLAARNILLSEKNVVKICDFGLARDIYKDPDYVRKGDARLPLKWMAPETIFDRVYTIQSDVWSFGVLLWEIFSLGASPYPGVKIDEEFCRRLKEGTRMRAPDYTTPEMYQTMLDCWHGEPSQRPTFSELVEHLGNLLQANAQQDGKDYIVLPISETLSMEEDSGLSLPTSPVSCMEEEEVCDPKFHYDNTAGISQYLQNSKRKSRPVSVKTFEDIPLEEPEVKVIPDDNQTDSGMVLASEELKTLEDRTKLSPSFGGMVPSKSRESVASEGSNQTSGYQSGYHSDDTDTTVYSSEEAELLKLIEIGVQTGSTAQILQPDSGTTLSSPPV

IC50 (A549) [nM]	IC50 [2] [nM]	SMILES	IC50 [1] [nM]
2490		COc1ccc(C(=O)OCCN(C)C)cc1NC(=O)Nc1cc(-c2cccnc2)cc(C(F)(F)F)c1	860
1660	> 500000	COc1ccc(C(=O)OCCN(C)C)cc1NC(=O)Nc1cc(-c2cncnc2)cc(C(F)(F)F)c1	1390
1010		COc1ccc(C(=O)OCCN(C)C)cc1NC(=O)Nc1cc(-c2cccnc2)ccc1OC(F)(F)F	1380
950		COc1ccc(C(=O)OCCN(C)C)cc1NC(=O)Nc1cc(-c2ccc3[nH]ccc3c2)ccc1OC(F)(F)F	1760
910		COc1ccc(-c2ccc(OC(F)(F)F)c(NC(=O)Nc3cc(C(=O)OCCN(C)C)ccc3OC)c2)cn1	2010
14700		COc1ccc(C(=O)OCCN(C)C)cc1NC(=O)Nc1cc(-c2cncnc2)ccc1OC(F)(F)F	6150
990		CCN(CC)CCOC(=O)c1ccc(OC)c(NC(=O)Nc2cc(-c3ccc4[nH]ccc4c3)ccc2OC(F)(F)F)c1	570
1730		CCN(CC)CCOC(=O)c1ccc(OC)c(NC(=O)Nc2cc(-c3ccc(OC)nc3)ccc2OC(F)(F)F)c1	640
> 500000	> 500000	CCN(CC)CCOC(=O)c1ccc(OC)c(NC(=O)Nc2cc(-c3cncnc3)ccc2OC(F)(F)F)c1	3430
1910		COc1ccc(C(=O)OCCN(C(C)C)C(C)C)cc1NC(=O)Nc1cc(-c2cccnc2)cc(C(F)(F)F)c1	730
1570	> 500000	COc1ccc(C(=O)OCCN(C(C)C)C(C)C)cc1NC(=O)Nc1cc(-c2ccc3[nH]ccc3c2)cc(C(F)(F)F)c1	410
2060	> 500000	COc1ccc(C(=O)OCCN(C(C)C)C(C)C)cc1NC(=O)Nc1cc(-c2ccc3[nH]ccc3c2)ccc1OC(F)(F)F	360
3970	> 500000	COc1ccc(C(=O)OCCN(C(C)C)C(C)C)cc1NC(=O)Nc1cc(-c2cncnc2)ccc1OC(F)(F)F	920
1520	> 500000	COc1ccc(C(=O)OCCN(C(C)C)C(C)C)cc1NC(=O)Nc1cc(-c2cn[nH]c2)ccc1OC(F)(F)F	1230
> 500000	> 500000	COc1ccc(C(=O)OCCN(C(C)C)C(C)C)cc1NC(=O)Nc1cc(-c2cnn(C)c2)ccc1OC(F)(F)F	> 500000
> 500000	> 500000	COc1ccc(C(=O)OCCN2CCOCC2)cc1NC(=O)Nc1cc(-c2cccnc2)cc(C(F)(F)F)c1	11100
1240	> 500000	COc1ccc(C(=O)OCCN2CCOCC2)cc1NC(=O)Nc1cc(-c2ccc3[nH]ccc3c2)cc(C(F)(F)F)c1	1770
1280		COc1ccc(C(=O)OCCN2CCOCC2)cc1NC(=O)Nc1cc(-c2cncnc2)ccc1OC(F)(F)F	10800
> 500000		COc1ccc(C(=O)OCCN2CCOCC2)cc1NC(=O)Nc1cc(-c2cn[nH]c2)ccc1OC(F)(F)F	2550
1170		Nc1n[nH]c2cccc(-c3cccc(NC(=O)Nc4ccccc4F)c3)c12	2360

IC50 (A549) [nM]	IC50 [2] [nM]	SMILES	IC50 [1] [nM]
1360		Nc1n[nH]c2cccc(-c3cccc(NC(=O)Nc4cccc(F)c4)c3)c12	1240
> 500000		Nc1n[nH]c2cccc(-c3cccc(NC(=O)Nc4ccc(F)cc4)c3)c12	> 500000
15800		Nc1n[nH]c2cccc(-c3cccc(NC(=O)Nc4ccccc4Cl)c3)c12	> 500000
1720		Nc1n[nH]c2cccc(-c3cccc(NC(=O)Nc4cccc(Cl)c4)c3)c12	1830
1660		Cc1ccc(NC(=O)Nc2cccc(-c3cccc4[nH]nc(N)c34)c2)cc1	4450
1420		CC(C)c1cccc(NC(=O)Nc2cccc(-c3cccc4[nH]nc(N)c34)c2)c1	280
1950		Nc1n[nH]c2cccc(-c3cccc(NC(=O)Nc4cccc(C(F)(F)F)c4)c3)c12	1410
2490		COc1cccc(NC(=O)Nc2cccc(-c3cccc4[nH]nc(N)c34)c2)c1	2860
229000	> 500	Cc1cccc(C)c1NC(=O)Nc1cccc(-c2cccc3[nH]nc(N)c23)c1	> 500000
3040	> 500	Nc1n[nH]c2cccc(-c3cccc(NC(=O)Nc4ccc(F)c(F)c4)c3)c12	5880
> 500000		Nc1n[nH]c2cccc(-c3cccc(NC(=O)Nc4ccc(Cl)cc4Cl)c3)c12	1900
1510		Nc1n[nH]c2cccc(-c3cccc(NC(=O)Nc4cc(C(F)(F)F)cc(C(F)(F)F)c4)c3)c12	3540
1750		Cc1ccc(NC(=O)Nc2cccc(-c3cccc4[nH]nc(N)c34)c2)cc1Cl	510
3410		Nc1n[nH]c2cccc(-c3cccc(NC(=O)Nc4ccc(Cl)c(C(F)(F)F)c4)c3)c12	1150
> 500000	> 500	Nc1n[nH]c2cccc(-c3cccc(NC(=O)Nc4nccs4)c3)c12	550
5230		Nc1n[nH]c2cccc(-c3ccc(NC(=O)Nc4ccc5c(c4)OCO5)cc3)c12	530
1160	> 500	Cc1ccnc(NC(=O)Nc2ccc(-c3cccc4[nH]nc(N)c34)cc2)c1	430
> 500000		CN(C)CCOc1ccc(NC(=O)Nc2ccc(-c3cccc4[nH]nc(N)c34)cc2)cc1F	600
1450		CNC(=O)c1cc(Oc2ccc(NC(=O)Nc3ccc(Cl)c(C(F)(F)F)c3)cc2)ccn1 [SORAFENIB]	650
